Source: PMC11102520, “Design, synthesis, molecular docking study, and α-glucosidase inhibitory evaluation of novel hydrazide–hydrazone derivatives of 3,4-dihydroxyphenylacetic acid” (Scientific Reports, 2024)

Key:
[1] = target: α-glucosidase (Saccharomyces cerevisiae, UniProt P53341); test: In vitro α-glucosidase inhibition assay (p-nitrophenyl glucopyranoside substrate); type: biochemical; conditions: for inhibition at 500 µM: test compound 0.5mM, read-out: Percent Inhibition (0.5mM)
Procedure: The reaction was initiated by the addition of 10 μL of 0.5mM substrate(p-nitrophenyl glucopyranoside, Sigma Inc.). […] All experiments were carried out in triplicates (mean ± SEM, n=3).

Chain of α-glucosidase (P53341 whole entry): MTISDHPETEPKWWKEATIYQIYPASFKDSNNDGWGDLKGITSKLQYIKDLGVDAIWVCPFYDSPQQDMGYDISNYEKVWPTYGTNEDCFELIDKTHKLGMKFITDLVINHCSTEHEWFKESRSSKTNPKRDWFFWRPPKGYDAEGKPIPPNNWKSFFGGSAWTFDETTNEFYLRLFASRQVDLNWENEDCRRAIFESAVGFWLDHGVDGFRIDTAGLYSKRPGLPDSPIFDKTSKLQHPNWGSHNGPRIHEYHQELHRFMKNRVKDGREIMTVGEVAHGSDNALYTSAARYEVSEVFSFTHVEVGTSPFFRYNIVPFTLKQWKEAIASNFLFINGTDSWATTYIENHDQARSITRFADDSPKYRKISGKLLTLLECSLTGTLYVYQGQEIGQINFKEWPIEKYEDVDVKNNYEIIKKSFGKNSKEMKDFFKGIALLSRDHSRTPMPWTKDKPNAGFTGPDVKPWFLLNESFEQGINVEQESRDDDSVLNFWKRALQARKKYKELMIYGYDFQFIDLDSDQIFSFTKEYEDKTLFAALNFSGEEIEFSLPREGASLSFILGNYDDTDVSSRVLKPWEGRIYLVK

Row | melting point | inhibition at 500 µM [1] | α-glucosidase inhibitory activity (in words) [1] | Structure (SMILES)
1 | 164 °C | 86.3% |  | O=C(Cc1ccc(O)c(O)c1)NN=Cc1ccccc1O [Compound 1, (3,4-dihydroxyphenyl)-N'-(2-hydroxybenzylidene)acetohydrazide]
2 | 210 °C | 90.4% |  | O=C(Cc1ccc(O)c(O)c1)NN=Cc1ccc(O)cc1 [Compound 2, 2-(3,4-dihydroxyphenyl)-N'-(4-hydroxybenzylidene)acetohydrazide]
3 | 212 °C | 91.3% |  | O=C(Cc1ccc(O)c(O)c1)NN=Cc1ccc(O)c(O)c1 [Compound 3, N'-(3,4-dihydroxybenzylidene)-2-(3,4-dihydroxyphenyl)acetohydrazide]
4 | 198 °C | 95.7% |  | O=C(Cc1ccc(O)c(O)c1)NN=Cc1ccc(O)cc1O [Compound 4, N'-(2,4-dihydroxybenzylidene)-2-(3,4-dihydroxyphenyl)acetohydrazide]
5 | 212 °C | 96.1% |  | O=C(Cc1ccc(O)c(O)c1)NN=Cc1ccc(O)c(O)c1O [Compound 5, 2-(3,4-dihydroxyphenyl)-N'-(2,3,4-trihydroxybenzylidene)acetohydrazide]
6 | 189 °C | 86.4% |  | COc1cc(C=NNC(=O)Cc2ccc(O)c(O)c2)ccc1O [Compound 6, 2-(3,4-dihydroxyphenyl)-N'-(4-hydroxy-3-methoxybenzylidene)acetohydrazide]
7 | 204 °C | 91.7% |  | COc1cccc(C=NNC(=O)Cc2ccc(O)c(O)c2)c1O [Compound 7, 2-(3,4-dihydroxyphenyl)-N'-(2-hydroxy-3-methoxybenzylidene)acetohydrazide]
8 | 206 °C | 91% |  | COc1ccc(C=NNC(=O)Cc2ccc(O)c(O)c2)c(O)c1 [Compound 8, 2-(3,4-dihydroxyphenyl)-N'-(2-hydroxy-4-methoxybenzylidene)acetohydrazide]
9 | 184 °C | 83.3% |  | CCOc1cc(C=NNC(=O)Cc2ccc(O)c(O)c2)ccc1O [Compound 9, 2-(3,4-dihydroxyphenyl)-N'-(3-ethoxy-4-hydroxybenzylidene)acetohydrazide]
10 | 164 °C | 81.9% |  | CCOc1ccc(C=NNC(=O)Cc2ccc(O)c(O)c2)c(O)c1 [Compound 10, 2-(3,4-dihydroxyphenyl)-N'-(4-ethoxy-2-hydroxybenzylidene)acetohydrazide]
11 | 210 °C | 77.5% |  | Cc1ccc(C=NNC(=O)Cc2ccc(O)c(O)c2)cc1O [Compound 11, 2-(3,4-dihydroxyphenyl)-N'-(3-hydroxy-4-methylbenzylidene)acetohydrazide]
12 | 190 to 193 °C | 96.7% |  | COc1ccccc1C=NNC(=O)Cc1ccc(O)c(O)c1 [Compound 12, 2-(3,4-dihydroxyphenyl)-N'-(2-methoxybenzylidene)acetohydrazide]
13 | 198 °C | 95.2% |  | COc1ccc(C=NNC(=O)Cc2ccc(O)c(O)c2)cc1 [Compound 13, 2-(3,4-dihydroxyphenyl)-N'-(4-methoxybenzylidene)acetohydrazide]
14 | 210 °C | 92.2% |  | COc1ccc(C=NNC(=O)Cc2ccc(O)c(O)c2)cc1OC [Compound 14, 2-(3,4-dihydroxyphenyl)-N'-(3,4-dimethoxybenzylidene)acetohydrazide]
15 | 203 °C | 92.8% |  | CN(C)c1ccc(C=NNC(=O)Cc2ccc(O)c(O)c2)cc1 [Compound 15, (3,4-dihydroxyphenyl)-N'-(4-(dimethylamino)benzylidene)acetohydrazide]
16 | 201 °C | 84.1% |  | Cc1ccc(C=NNC(=O)Cc2ccc(O)c(O)c2)cc1 [Compound 16, 2-(3,4-dihydroxyphenyl)-N'-(4-methylbenzylidene)acetohydrazide]
17 | 210 °C | 72% |  | O=C(Cc1ccc(O)c(O)c1)NN=Cc1cccc2ccccc12 [Compound 17, 2-(3,4-dihydroxyphenyl)-N'-(naphthalen-1-ylmethylene)acetohydrazide]
18 | 164 °C | 85.3% |  | O=C(Cc1ccc(O)c(O)c1)NN=Cc1ccccc1Cl [Compound 18, N'-(2-chlorobenzylidene)-2-(3,4-dihydroxyphenyl)acetohydrazide]
19 | 198 °C | 79.4% |  | O=C(Cc1ccc(O)c(O)c1)NN=Cc1ccc(Cl)cc1 [Compound 19, N'-(4-chlorobenzylidene)-2-(3,4-dihydroxyphenyl)acetohydrazide]
20 | 196 °C | 84.4% |  | O=C(Cc1ccc(O)c(O)c1)NN=Cc1cccc(Cl)c1 [Compound 20, N'-(3-chlorobenzylidene)-2-(3,4-dihydroxyphenyl)acetohydrazide]
21 | 262 °C |  | no inhibitory activity | O=C(Cc1ccc(O)c(O)c1)NN=Cc1c(Cl)cccc1Cl [Compound 22, N'-(2,6-dichlorobenzylidene)-2-(3,4-dihydroxyphenyl)acetohydrazide]
22 | 201 °C | 80.9% |  | O=C(Cc1ccc(O)c(O)c1)NN=Cc1ccc([N+](=O)[O-])cc1 [Compound 23, 2-(3,4-dihydroxyphenyl)-N'-(4-nitrobenzylidene)acetohydrazide]
23 | 204 °C | 82.7% |  | O=C(Cc1ccc(O)c(O)c1)NN=Cc1ccccc1[N+](=O)[O-] [Compound 24, 2-(3,4-dihydroxyphenyl)-N'-(2-nitrobenzylidene)acetohydrazide]
24 | 206 °C | 78.2% |  | O=C(Cc1ccc(O)c(O)c1)NN=Cc1cccc([N+](=O)[O-])c1 [Compound 25, 2-(3,4-dihydroxyphenyl)-N'-(3-nitrobenzylidene)acetohydrazide]
25 | 204 °C |  |  | O=Cc1ccc(C=NNC(=O)Cc2ccc(O)c(O)c2)cc1 [Compound 26, 2-(3,4-dihydroxyphenyl)-N'-(4-formylbenzylidene)acetohydrazide]
26 | 156 °C |  |  | O=C(Cc1ccc(O)c(O)c1)NN=Cc1ccco1 [Compound 27, 2-(3,4-dihydroxyphenyl)-N'-(furan-2-ylmethylene)acetohydrazide]
27 | 198 °C |  |  | CSc1ccc(C=NNC(=O)Cc2ccc(O)c(O)c2)cc1 [Compound 28, 2-(3,4-dihydroxyphenyl)-N'-(4-(methylthio)benzylidene)acetohydrazide]
